BigSolDB 2.1

O=c1c(-c2ccc(O)cc2)coc2cc(O[C@@H]3O[C@H](CO)[C@@H](O)[C@H](O)[C@H]3O)cc(O)c12
solubility (mole fraction)
Settings	283.2 K	293.2 K	303.2 K	313.2 K	323.2 K
in THF	8.67e-05	0.000101	0.000123	0.000149	0.000186
in acetone	0.000354	0.000361	0.000369	0.000382	0.000388
in acetonitrile	1.15e-06	1.61e-06	2.15e-06	2.62e-06	3.12e-06
in chloroform	2.86e-07	3.37e-07	4.14e-07	5.02e-07	6.54e-07
in cyclohexane	2.66e-07	4.59e-07	6.56e-07	9.11e-07	1.25e-06
in ethanol	2.63e-05	2.85e-05	3.28e-05	3.72e-05	4.38e-05
in ethyl acetate	1.17e-06	1.52e-06	1.99e-06	2.55e-06	3.25e-06
in isopropanol	7.95e-06	1.05e-05	1.34e-05	1.71e-05	2.2e-05
in methanol	5e-05	5.54e-05	5.91e-05	6.44e-05	7.04e-05
in n-butanol	4.78e-06	8.48e-06	1.25e-05	1.56e-05	1.91e-05
in n-hexane	3.64e-07	4.87e-07	6.47e-07	8.58e-07	1.14e-06
